Assay results reported in US7811605B2, “Method of formation of shape-retentive aggregates of gel particles and their uses” (ULURU Inc., priority 2002, dated 2010).

Assay: Entrapment and release of bromocresol green from particle aggregates in PBS, UV-Visible absorption
Format: physicochemical
Settings: 1 mg dye in 2 mL Tween 80 stabilized pHEMA particles, 36 mg/mL, injected into PBS; discrete particles and 50:50 mixtures of two sizes
Method: Injection of a dispersion of particles with a small molecule dissolved in the suspension medium forms an aggregate that traps some of the small molecule. In a typical experiment, 1 mg of bromocresol green dye was dissolved into 2 mL of a suspension of Tween 80 stabilized pHEMA particles (725 nm in diameter) with a hydrated polymer mass of 36 mg/mL. The dispersed particles and dye were injected into a solution of phosphate buffered saline. After 10 minutes of aggregation, the solution was shaken at 10 cycles per second to insure adequate mixing. 2 mL samples of supernatant were taken and characterized by UV-Visible absorption spectroscopy. […] In both cases, most of the small molecule is released within the first 3-5 hours, however, the burst effect is smaller in the mixed aggregate system.

Structure (SMILES): Cc1c(C2(c3cc(Br)c(O)c(Br)c3C)OS(=O)(=O)c3ccccc32)cc(Br)c(O)c1Br [bromocresol green]
- time within which most of the small molecule is released: 3 to 5 h
